Measured values published in PubChem BioAssay AID2180 (Vanderbilt High Throughput Screening Facility, 2009).
Calls of active or inactive are those of the source. The rule behind the calls is not given here.

Target: Metabotropic glutamate receptor 4 (Homo sapiens) (UniProt Q14833)
Assay: PubChem AID 2180
Details: CHO hmGluR4/Gqi5, calcium mobilization, glutamate CRC fold-shift

Sequence of Metabotropic glutamate receptor 4 (Homo sapiens) (Q14833 whole entry, looked up): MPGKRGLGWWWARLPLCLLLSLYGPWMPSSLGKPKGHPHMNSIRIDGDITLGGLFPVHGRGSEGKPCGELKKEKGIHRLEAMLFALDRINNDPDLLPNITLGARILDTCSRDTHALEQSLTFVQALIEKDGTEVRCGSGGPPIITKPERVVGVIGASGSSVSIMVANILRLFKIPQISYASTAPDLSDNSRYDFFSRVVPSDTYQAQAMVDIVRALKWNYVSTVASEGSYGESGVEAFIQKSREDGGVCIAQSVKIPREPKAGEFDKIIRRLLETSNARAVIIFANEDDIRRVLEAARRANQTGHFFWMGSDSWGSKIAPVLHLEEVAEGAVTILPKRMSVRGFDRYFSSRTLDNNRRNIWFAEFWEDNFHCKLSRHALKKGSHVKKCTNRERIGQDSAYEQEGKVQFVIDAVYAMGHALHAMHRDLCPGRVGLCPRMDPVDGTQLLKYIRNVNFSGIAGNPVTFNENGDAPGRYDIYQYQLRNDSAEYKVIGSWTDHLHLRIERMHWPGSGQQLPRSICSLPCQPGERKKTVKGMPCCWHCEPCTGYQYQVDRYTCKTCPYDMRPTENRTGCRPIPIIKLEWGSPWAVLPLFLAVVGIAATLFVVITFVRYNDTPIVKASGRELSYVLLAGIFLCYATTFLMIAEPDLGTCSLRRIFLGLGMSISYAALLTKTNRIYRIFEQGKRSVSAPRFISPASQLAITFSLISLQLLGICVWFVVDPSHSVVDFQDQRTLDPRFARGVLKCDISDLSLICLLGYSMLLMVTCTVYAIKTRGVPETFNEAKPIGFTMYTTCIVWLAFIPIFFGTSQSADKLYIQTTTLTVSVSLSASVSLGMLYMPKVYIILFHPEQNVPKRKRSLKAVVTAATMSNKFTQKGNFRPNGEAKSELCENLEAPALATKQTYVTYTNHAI

Row | Potency | Structure (SMILES)
1 | 1600 nM | COc1ccc(NC(=O)c2ccccn2)cc1Cl
2 | 604 nM | COc1cc(NC(=O)c2ccccn2)ccc1F
3 | 381 nM | COc1cc(NC(=O)c2ccccn2)ccc1Cl
4 | 641 nM | COc1cc(NC(=O)c2ccccn2)ccc1C

Continued, compound first:

Row | Structure (SMILES) | Potency
5 | O=C(Nc1ccc(F)c(C(F)(F)F)c1)c1ccccn1 | 5160 nM (inactive)
6 | O=C(Nc1ccc(Cl)c(C(F)(F)F)c1)c1ccccn1 | 6060 nM (inactive)
7 | O=C(Nc1cccc(Cl)c1)c1ccccn1 | 601 nM
